This passage reports GI50 and TGI results from PubChem BioAssay (NCI).

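Exposure lasted 48 hours, with cells grown in 96-well plates and compounds tested at five concentrations. GI50 is the concentration that inhibits growth by half. TGI: concentration producing complete growth inhibition.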

Among the test systems are SF-295 CNS; A549 NSCLC; NCI-H226 lung; SK-MEL-5 melanoma; BT-549 breast; HCT-116 colon; DU-145 prostate; NCI-H522 lung; EKVX NSCLC; SW-620 colon.
Common to all, as to experiment: NCI-60 cell line screen, 48 h

For `[CH3][Sn]([CH3])([CH3])[O]C(=O)C(O)c1ccccc1` (stereo unspecified), the GI50 in the assay with SF-295 CNS was 3.67 µM; in the assay on A549 NSCLC, 4.72 µM; in the assay on NCI-H226 lung, 16.4 µM; in the assay on SK-MEL-5 melanoma, 1.83 µM; in the assay with BT-549 breast it was 17.9 µM; with HCT-116 colon it was 3.58 µM. Moreover, the GI50 with DU-145 prostate was 6.18 µM; with NCI-H522 lung, 2.6 µM; with EKVX NSCLC, 5.36 µM; with SW-620 colon it was 5.13 µM. For the same compound, the TGI was 16.9 µM in the assay on SF-295 CNS; 49.1 µM with A549 NSCLC; 94 µM in the assay with NCI-H226 lung; 3.35 µM with SK-MEL-5 melanoma; greater than 100 µM in the assay on BT-549 breast; 31.6 µM in the assay on HCT-116 colon. In addition, the TGI in the assay with DU-145 prostate is greater than 100 µM; in the assay with NCI-H522 lung, 13.1 µM; in the assay on EKVX NSCLC, 55.7 µM; with SW-620 colon it was greater than 100 µM.

As to `C/C(=C\CCc1ccsc1)CC/C=C(\C)CCCN1CCN(CCO)CC1`, the GI50 in the assay on SF-295 CNS was 2.29 µM; in the assay on A549 NSCLC it was 3.05 µM; in the assay on NCI-H226 lung, 5.68 µM; in the assay on SK-MEL-5 melanoma, 1.59 µM; in the assay with BT-549 breast, 2.78 µM; in the assay on HCT-116 colon it was 2.71 µM. Besides, the GI50 was 6.96 µM with DU-145 prostate, 1.91 µM in the assay on NCI-H522 lung and 1.93 µM in the assay with SW-620 colon. In addition, the TGI in the assay on SF-295 CNS amounted to 5.64 µM; with A549 NSCLC it was 13.3 µM; in the assay on NCI-H226 lung, 24.3 µM; in the assay with SK-MEL-5 melanoma, 2.97 µM; with BT-549 breast, 10.9 µM; with HCT-116 colon, 9.26 µM. Also, the TGI with DU-145 prostate was determined as 19.6 µM; with NCI-H522 lung, 4.71 µM; with SW-620 colon, 4.29 µM.

`Cc1ccc2c(n1)C(=O)C(Cl)=C(Nc1ccc(N3CCN(C)CC3)cc1)C2=O`: the GI50 in the assay with SF-295 CNS was 18 µM; in the assay on A549 NSCLC, 14.6 µM; with NCI-H226 lung, 1.77 µM; in the assay with SK-MEL-5 melanoma, 1.72 µM; in the assay with BT-549 breast, 1.61 µM; in the assay with HCT-116 colon, 1.67 µM. For the same compound, the GI50 is 1.76 µM with DU-145 prostate, 1.86 µM with NCI-H522 lung, 1.73 µM with EKVX NSCLC and 2.01 µM in the assay on SW-620 colon. Moreover, the TGI came out at 32.3 µM with SF-295 CNS; 30 µM in the assay on A549 NSCLC; 3.38 µM in the assay with NCI-H226 lung; 3.1 µM in the assay with SK-MEL-5 melanoma; 2.97 µM in the assay on BT-549 breast; 3.19 µM with HCT-116 colon. Moreover, the TGI in the assay on DU-145 prostate worked out at 3.25 µM; in the assay on NCI-H522 lung it was 4.78 µM; in the assay with EKVX NSCLC it was 3.12 µM; in the assay with SW-620 colon, 4.52 µM.

Take `Cc1ccn2c(-c3csc(Nc4cccc(O)c4)n3)c(C)nc2c1`: the GI50 is 2.34 µM in the assay with SF-295 CNS; 0.896 µM in the assay with A549 NSCLC; 14.1 µM in the assay with NCI-H226 lung; 0.478 µM in the assay on SK-MEL-5 melanoma; 0.781 µM in the assay with BT-549 breast; 0.397 µM in the assay with HCT-116 colon. The GI50 in the assay with DU-145 prostate was 0.787 µM; in the assay on NCI-H522 lung, 0.32 µM; in the assay with SW-620 colon, 0.337 µM. The TGI in the assay with SF-295 CNS was 11.9 µM; in the assay with A549 NSCLC it was 26.1 µM; with NCI-H226 lung, 57.4 µM; with SK-MEL-5 melanoma, 11.1 µM; in the assay on BT-549 breast, 33.6 µM; with HCT-116 colon, 15.1 µM. The TGI in the assay with DU-145 prostate amounted to 25.3 µM; in the assay with NCI-H522 lung it was 3.22 µM; with SW-620 colon, 26.8 µM.

Regarding `c1cc2ccc3cc2cc1CNCCOCCNCc1ccc2ccc(cc2c1)CNCCOCCNC3`, the GI50 in the assay with SF-295 CNS, with A549 NSCLC, in the assay with NCI-H226 lung, in the assay with SK-MEL-5 melanoma, in the assay on BT-549 breast and with HCT-116 colon was greater than 100 µM throughout. Further, the GI50 in the assay with DU-145 prostate, in the assay on NCI-H522 lung, in the assay with EKVX NSCLC and in the assay on SW-620 colon was greater than 100 µM in each case. Besides, the TGI in the assay with SF-295 CNS, in the assay with A549 NSCLC, in the assay on NCI-H226 lung, in the assay with SK-MEL-5 melanoma, in the assay with BT-549 breast and in the assay on HCT-116 colon was greater than 100 µM throughout. The TGI with DU-145 prostate, in the assay on NCI-H522 lung, with EKVX NSCLC and with SW-620 colon was greater than 100 µM in each case.

On to `O=C(NCCSSCCNC(=O)/C(Cc1ccc(O)c(Br)c1)=N/O)/C(Cc1ccc(O)c(Br)c1)=N/O`, for which the TGI in the assay with SF-295 CNS is 4.29 µM; in the assay on A549 NSCLC it was 15.5 µM; with NCI-H226 lung, 41.9 µM; in the assay on SK-MEL-5 melanoma it was 2.33 µM; with BT-549 breast, 15 µM; in the assay with HCT-116 colon, 5.98 µM. Moreover, the TGI is 12.7 µM in the assay on DU-145 prostate, 4.26 µM with NCI-H522 lung, greater than 24 µM in the assay on EKVX NSCLC and 14.3 µM in the assay on SW-620 colon.

Turning to `N#Cc1ccc(N2Cc3cc(Cl)ccc3OC3=C2C(=O)N(Cc2ccc(F)cc2)C3=O)cc1`, the GI50 was 4.65 µM with SF-295 CNS; 7.34 µM with A549 NSCLC; 1.62 µM in the assay with NCI-H226 lung; 1.26 µM in the assay with SK-MEL-5 melanoma; 0.174 µM with BT-549 breast; 0.275 µM in the assay with HCT-116 colon. The GI50 was 0.662 µM in the assay on DU-145 prostate, 0.475 µM in the assay on NCI-H522 lung, 1.08 µM in the assay on EKVX NSCLC and 0.411 µM with SW-620 colon. In addition, the TGI was found to be 14.5 µM with SF-295 CNS; 23.2 µM in the assay on A549 NSCLC; 3.75 µM in the assay on NCI-H226 lung; 2.94 µM in the assay on SK-MEL-5 melanoma; 0.356 µM in the assay with BT-549 breast; 0.934 µM in the assay with HCT-116 colon. For the same compound, the TGI in the assay on DU-145 prostate is 1.45 µM; in the assay with NCI-H522 lung, 1.01 µM; with EKVX NSCLC it was 4.24 µM; in the assay with SW-620 colon, 1.02 µM.

Turning to `Cc1cc2oc(=O)c(Cl)c(Cl)c2c(C)c1Cl`, the TGI is 31.9 µM in the assay with SF-295 CNS; 37.3 µM with A549 NSCLC; 33.2 µM in the assay on NCI-H226 lung; 19.2 µM in the assay on SK-MEL-5 melanoma; 39 µM in the assay with BT-549 breast; 14 µM in the assay on HCT-116 colon. Further, the TGI in the assay on DU-145 prostate was found to be 27.8 µM; in the assay with NCI-H522 lung, 28.3 µM; in the assay with EKVX NSCLC, 34.5 µM; with SW-620 colon, 2.94 µM.
